Results: patent US8933037B2, “Methods involving PDGFRBETA inhibitors” (Medizinische Universitat Wien, priority 2009, dated 2015)
“Also recorded” adds a separate entry of the source.

Experiments:
Karpas-299 lymphomas = conditions: cited from earlier work
CD30 = conditions: cited from earlier work
HD and ALCL = conditions: cited from earlier work
human ACLC/HD-cell lines = conditions: cited from earlier work
417 cells = assay: Alamar Blue assay (apoptosis), 417 cells; format: cell-based, mouse
Protocol: (§1) Apoptosis rates were measured by Alamar Blue assays. The active ingredient of Alamar Blue is resazurin, a non-fluorescent dark blue indicator dye. It is able to permeate cells and is converted to resorufin, a fluorescent, bright red dye, in a reduction reaction by living (metabolically active) cells. The produced fluorescence is proportional to the number of metabolically active cells.
(§2) We incubated SR-786 and 417 cells treated with 0-20 μM imatinib with Alamar Blue for one hour at 37 degrees Celsius.

SR-786 cells = assay: Alamar Blue assay (apoptosis), SR-786 cells; format: cell-based, human
Protocol: as §1, §2

[1] = system: human ALK positive ALCL cell lines; conditions: cited from earlier work
NPM-ALK = target: T1, NPM-ALK (Homo sapiens, UniProt Q9UM73); conditions: cited from earlier work
T1 construct: the other entry of the earlier key: NPM1 (P06748, Nucleophosmin)

[2] = system: murine NPM-ALK and PDGFRB positive cell line 417; assay: Cell number after three days culture with inhibitor, cell line 417; conditions: different concentrations, three days in RPMI medium
[3] = system: murine NPM-ALK positive cell line CD4-417 tumors; assay: Murine xenograft model, CD4-417 cells in flank of SCID mice
[4] = system: human NPM-ALK positive and PDGFRB negative cell line SR-786; assay: Cell number after three days culture with inhibitor, cell line SR-786; conditions: different concentrations, three days in RPMI medium

T1 sequence (Q9UM73 with tags, fused parts or gaps): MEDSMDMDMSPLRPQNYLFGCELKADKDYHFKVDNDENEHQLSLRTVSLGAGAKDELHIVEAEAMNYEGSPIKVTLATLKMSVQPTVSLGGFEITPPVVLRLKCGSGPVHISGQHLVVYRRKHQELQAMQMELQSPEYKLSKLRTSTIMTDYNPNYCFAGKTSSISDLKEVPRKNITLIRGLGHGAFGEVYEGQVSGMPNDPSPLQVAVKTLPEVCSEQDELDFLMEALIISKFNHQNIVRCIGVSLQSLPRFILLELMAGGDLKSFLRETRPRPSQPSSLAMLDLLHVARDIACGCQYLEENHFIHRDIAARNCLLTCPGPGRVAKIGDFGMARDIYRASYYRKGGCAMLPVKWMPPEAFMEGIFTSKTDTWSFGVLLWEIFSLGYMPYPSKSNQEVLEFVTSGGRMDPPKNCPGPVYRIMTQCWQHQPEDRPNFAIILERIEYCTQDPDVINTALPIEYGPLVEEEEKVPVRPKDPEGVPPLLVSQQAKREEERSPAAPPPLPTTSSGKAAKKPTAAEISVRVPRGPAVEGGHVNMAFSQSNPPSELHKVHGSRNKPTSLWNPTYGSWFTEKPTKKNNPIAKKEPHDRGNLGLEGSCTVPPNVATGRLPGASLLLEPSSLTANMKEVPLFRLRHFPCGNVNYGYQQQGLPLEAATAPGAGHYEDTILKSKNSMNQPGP

COc1cc(N2CCC(N3CCN(C)CC3)CC2)ccc1Nc1ncc(Cl)c(Nc2ccccc2S(=O)(=O)C(C)C)n1 [NVP-TAE684]
established Karpas-299 lymphomas in vivo (Karpas-299 lymphomas): induced regression
lymphomagenesis in two independent models of ALK-positive ALCL (Karpas-299 lymphomas; in vivo): suppress lymphomagenesis
CD30 expression (CD30): induced down-regulation

CNC(=O)c1cc(Oc2ccc(NC(=O)Nc3ccc(Cl)c(C(F)(F)F)c3)cc2)ccn1 [sorafenib, 4-[4-[[4-chloro-3-(trifluoromethyl)phenyl]carbamoylamino]phenoxy]-N-methyl-pyridine-2-carboxamide]
in vivo treatment of HD and ALCL (HD and ALCL): not effective
apoptosis in human ACLC/HD-cell lines (human ACLC/HD-cell lines): able to induce apoptosis

Cc1ccc(NC(=O)c2ccc(CN3CCN(C)CC3)cc2)cc1Nc1nccc(-c2cccnc2)n1 [imatinib, 4-[(4-methylpiperazin-1-yl)methyl]-N-[4-methyl-3-[(4-pyridin-3-ylpyrimidin-2-yl)amino]phenyl]benzamide]
conversion of resazurin to resorufin, 417 cells at 0-10 μM (417 cells; 0-10 μM, Alamar Blue one hour at 37 degrees Celsius): responded similar to SR-786 cells
conversion of resazurin to resorufin (color change), 417 cells at 20 μM (417 cells; 20 μM, Alamar Blue one hour at 37 degrees Celsius): not able to induce the color change
apoptosis by Alamar Blue, 417 cells at 20 μM (417 cells; 20 μM, three days after treatment): strongly increased; also recorded: high apoptosis
apoptosis by Alamar Blue, 417 cells, dose dependence (417 cells; in vitro, 0-20 μM): increased apoptosis rates; also recorded: dose dependent apoptosis
conversion of resazurin to resorufin, SR-786 cells (SR-786 cells; 0-20 μM, Alamar Blue one hour at 37 degrees Celsius): comparable rate, regardless of imatinib concentrations
apoptosis by Alamar Blue, SR-786 cells (SR-786 cells; up to 20 μM, three days): unaffected
effect on ALCL cell lines [1]: unable to show effects
binding to ALK (NPM-ALK): unable to bind ALK
sensitivity of NPM-ALK to imatinib treatment (NPM-ALK): insensitive
cell number (antiproliferative effect), cell line 417 [2]: increasingly impaired; also recorded: strongly react; also recorded: reduced cell numbers; also recorded: dose dependent reduction in cell number

Cc1cn(-c2cc(NC(=O)c3ccc(C)c(Nc4nccc(-c5cccnc5)n4)c3)cc(C(F)(F)F)c2)cn1 [nilotinib, 4-methyl-N-[3-(4-methyl-1H-imidazol-1-yl)-5-(trifluoromethyl)phenyl]-3-[(4-pyridin-3-ylpyrimidin-2-yl)amino]benzamide]
tumor weight vs untreated control tumors ([3]; after 6 days of treatment): drastically reduced
tumor size reduction ([3]; nilotinib treatment, xenografted mice): more than 59%
cell number (antiproliferative effect), cell line 417 [2]: strongly react; also recorded: dose dependent reduction in cell number
cell number / proliferation rates, cell line SR-786 [4]: remain unaffected
